Assay results: patent publication US20060142572A1, “Inhibitors of ERK protein kinase and uses thereof” (priority 2004, published 2006)

Molecular target: activated ERK2 (Homo sapiens, UniProt P28482)
Test: ERK2 inhibition assay (spectrophotometric coupled-enzyme assay)
Type: biochemical
Conditions: activated ERK2 10 nM, 65 μM ATP, 200 μM erktide peptide, 30° C., pH 7.5
Procedure: Compounds were assayed for the inhibition of ERK2 by a spectrophotometric coupled-enzyme assay (Fox et al., Protein Sci. 7:2249, 1998). In this assay, a fixed concentration of activated ERK2 (10 nM) was incubated with various concentrations of a compound of the present invention in DMSO (2.5%) for 10 min. at 30° C. in 0.1 M HEPES buffer (pH 7.5), containing 10 mM MgCl2, 2.5 mM phosphoenolpyruvate, 200 μM NADH, 150 μg/ml pyruvate kinase, 50 μg/ml lactate dehydrogenase, and 200 μM erktide peptide. The reaction was initiated by the addition of 65 μM ATP. The rate of decrease of absorbance at 340 nm was monitored.

Sequence of activated ERK2 (P28482 whole entry): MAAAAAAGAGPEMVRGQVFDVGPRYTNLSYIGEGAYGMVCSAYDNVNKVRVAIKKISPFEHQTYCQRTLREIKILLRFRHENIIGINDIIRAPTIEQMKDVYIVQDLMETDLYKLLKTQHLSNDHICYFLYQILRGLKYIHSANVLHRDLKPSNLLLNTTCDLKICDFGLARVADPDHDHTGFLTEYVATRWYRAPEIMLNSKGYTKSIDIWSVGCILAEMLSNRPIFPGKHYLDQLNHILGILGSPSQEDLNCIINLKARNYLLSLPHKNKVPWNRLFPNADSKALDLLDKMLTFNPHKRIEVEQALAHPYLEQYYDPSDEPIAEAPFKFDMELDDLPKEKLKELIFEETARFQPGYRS

For `CC(C)Nc1ncc(Cl)c(NCC(=O)N[C@H](CO)c2cccc(Cl)c2)n1` [Compound I-1], which Ki is on record?
Its Ki is over 700 nM.

How did the Ki turn out when `C[C@@H](CO)Nc1ncc(Cl)c(NCC(=O)N[C@H](CO)c2cccc(Cl)c2)n1` [Compound I-2, 2-[5-chloro-2-(2-hydroxy-1-methylethylamino)-pyrimidin-4-ylamino]-N-[1-(3-chlorophenyl)-2-hydroxyethyl]acetamide] was run?
Its Ki is at most 700 nM.

For `CC(C)Nc1ncc(Cl)c(NCCC(=O)N[C@H](CO)c2cccc(Cl)c2)n1` [Compound I-3], which Ki is on record?
The Ki was over 700 nM.

For `C[C@@H](CO)Nc1ncc(Cl)c(NCCC(=O)N[C@H](CO)c2cccc(Cl)c2)n1` [Compound I-4], which Ki is on record?
Its Ki is over 700 nM.

`C[C@@H](CO)Nc1ncc(Cl)c(NC2(C(=O)N[C@H](CO)c3cccc(Cl)c3)CC2)n1` [Compound I-5, 1-(5-chloro-2-(2-hydroxy-1-methylethylamino)-pyrimidin-4-ylamino)-cyclopropanecarboxylic acid [1-(3-chlorophenyl)-2-hydroxyethyl]-amide] was tested. Which Ki did it give?
Its Ki is over 700 nM.

Which Ki does the source give for `CC[C@@H](CO)Nc1ncc(Cl)c(NC2(C(=O)N[C@H](CO)c3cccc(Cl)c3)CC2)n1` [Compound I-6] here?
The Ki was over 700 nM.

Which Ki does the source give for `C[C@@H](CO)Nc1ncc(Cl)c(N(C)CC(=O)N[C@H](CO)c2cccc(Cl)c2)n1` [Compound I-7, 2-{[5-chloro-2-(2-hydroxy-1-methylethylamino)pyrimidin-4-yl]-methylamino}-N-[1-(3-chlorophenyl)-2-hydroxyethyl]acetamide] here?
Its Ki is over 700 nM.

How did the Ki turn out when `C[C@@H](CO)Nc1nccc(N(C)CC(=O)N[C@H](CO)c2cccc(Cl)c2)n1` [Compound I-8] was run?
Its Ki is over 700 nM.
